Here are results for 1 molecule from BindingDB's records for doi:10.1021/acs.jmedchem.0c00996 (Albany College of Pharmacy and Health Sciences, 2020).

pIC50: −log10 of the molar value.

The assay concerns the target Retinol-binding protein 4 (Homo sapiens, UniProt P02753). The experiment in a line: Displacement of [3H]-all-trans-retinol from biotinylated human urine derived RBP4 measured after 16 hrs by scintillation proximity assay. (Displacement assays read how much labelled ligand stays bound in the presence of the test substance.)

Usually pIC50 stands for the IC50 on a negative log10 scale, so that one unit is a factor of ten. Read a high pIC50 as a small IC50. The molecule `Cc1cc(C(=O)O)nc(N2CCC(COc3ccccc3C(F)(F)F)C2)n1` (stereo unspecified) showed a pIC50 of 7.10.
